# Experimental data published in US12162872B2, “Cycloalkylurea derivative” (Sumitomo Pharma Co., Ltd., priority 2019, dated 2024).
# Molecular target: T1, Human orexin receptor type 2 (Homo sapiens, UniProt O43614)
# T1 construct: expressed in transfected cells; host or cells: CHO cells (transient expression)
# T1 sequence (O43614 1-444): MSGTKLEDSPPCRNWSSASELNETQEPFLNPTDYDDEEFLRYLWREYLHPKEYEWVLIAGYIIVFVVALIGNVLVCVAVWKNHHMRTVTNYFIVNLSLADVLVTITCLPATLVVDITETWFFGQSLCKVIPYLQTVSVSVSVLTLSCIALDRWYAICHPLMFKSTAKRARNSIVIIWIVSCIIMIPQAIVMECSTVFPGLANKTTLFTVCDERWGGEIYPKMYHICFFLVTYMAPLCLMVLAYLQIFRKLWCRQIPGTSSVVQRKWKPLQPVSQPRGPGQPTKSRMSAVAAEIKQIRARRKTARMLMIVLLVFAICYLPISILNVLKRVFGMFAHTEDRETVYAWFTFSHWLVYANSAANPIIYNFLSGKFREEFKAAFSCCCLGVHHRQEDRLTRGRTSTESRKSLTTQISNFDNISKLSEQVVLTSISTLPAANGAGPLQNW
# Assay: Test 2: Evaluation of agonist activity for orexin receptor type 2 (aequorin luminescence, intracellular calcium mobilization in CHO cells)
# Format: cell-based
# Details: relative percentage of luminescence for the luminescence (100%) of Orexin A (100 pM), CHO cells transiently expressing human orexin receptor type 2 and apoaequorin, Orexin A Lot. 671009
# In short: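 CHO cells transiently co-expressing the receptor and apoaequorin, incubated 16–22 h, were loaded 2 h at room temperature with 1 μM coelenterazine hcp (final). Compounds in Hanks/20 mM HEPES/0.1% BSA (0.1% DMSO final) were added and the calcium luminescence was read and expressed as % of Orexin A (100 pM).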
SMILES,agonist activity (%),agonist activity (%) (0.0001 µM)
"CC(C)CN(C)[C@H]1CCN([C@H]2CCCC(F)(F)[C@@H]2NC(=O)N2CCC(C)(c3noc([C@@H]4C[C@@H]4F)n3)CC2)C1 [Example 128, N-[(1R,6S)-2,2-difluoro-6-{(3S)-3-[methyl(2-methylpropyl)amino]pyrrolidin-1-yl}cyclohexyl]-4-{5-[(1S,2S)-2-fluorocyclopropyl]-1,2,4-oxadiazol-3-yl}-4-methylpiperidine-1-carboxamide]",402%,–
"CCN(CC)C1CCN([C@H]2CCCC(F)(F)[C@@H]2NC(=O)N2CCC(C)(c3noc([C@@H]4C[C@@H]4F)n3)CC2)CC1 [Example 129, N-{(1R,6S)-6-[4-(diethylamino)piperidin-1-yl]-2,2-difluorocyclohexyl}-4-{5-[(1S,2S)-2-fluorocyclopropyl]-1,2,4-oxadiazol-3-yl}-4-methylpiperidine-1-carboxamide]",435%,–
"Cc1ccc(C2(C)CCN(C(=O)N[C@@H]3[C@@H](O[C@H]4CCN(CC5(C)CC5)C4)CCCC3(F)F)CC2)cc1 [Example 130, N-[(1R,6S)-2,2-difluoro-6-({(3S)-1-[(1-methylcyclopropyl)methyl]pyrrolidin-3-yl}oxy)cyclohexyl]-4-methyl-4-(4-methylphenyl)piperidine-1-carboxamide]",450%,–
"CC(C)N(C)C1(C)CCN([C@H]2CCCC(F)(F)[C@@H]2NC(=O)N2CCC(C)(c3noc([C@@H]4C[C@@H]4F)n3)CC2)CC1 [Example 131, N-[(1R,6S)-2,2-difluoro-6-{4-methyl-4-[methyl(propan-2-yl)amino]piperidin-1-yl}cyclohexyl]-4-{5-[(1S,2S)-2-fluorocyclopropyl]-1,2,4-oxadiazol-3-yl}-4-methylpiperidine-1-carboxamide]",461%,–
"CC(C)N1CCN(C(=O)[C@H]2CCCC(F)(F)[C@@H]2NC(=O)N2CCC(C)(c3noc([C@@H]4C[C@@H]4F)n3)CC2)CC1 [Example 132, N-{(1R,6S)-2,2-difluoro-6-[4-(propan-2-yl)piperazine-1-carbonyl]cyclohexyl}-4-{5-[(1S,2S)-2-fluorocyclopropyl]-1,2,4-oxadiazol-3-yl}-4-methylpiperidine-1-carboxamide]",166%,–
"CC1(c2noc([C@@H]3C[C@@H]3F)n2)CCN(C(=O)N[C@@H]2[C@@H](O[C@H]3CCN(CC4(F)CC4)C3)CCCC2(F)F)CC1 [Example 133, N-[(1R,6S)-2,2-difluoro-6-({(3S)-1-[(1-fluorocyclopropyl)methyl]pyrrolidin-3-yl}oxy)cyclohexyl]-4-{5-[(1S,2S)-2-fluorocyclopropyl]-1,2,4-oxadiazol-3-yl}-4-methylpiperidine-1-carboxamide]",506%,–
"CN(CC1(C)CC1)C1CCN([C@H]2CCCC(F)(F)[C@@H]2NC(=O)N2CCC(C)(c3noc([C@@H]4C[C@@H]4F)n3)CC2)CC1 [Example 134, N-[(1R,6S)-2,2-difluoro-6-(4-{methyl[(1-methylcyclopropyl)methyl]amino}piperidin-1-yl)cyclohexyl]-4-{5-[(1S,2S)-2-fluorocyclopropyl]-1,2,4-oxadiazol-3-yl}-4-methylpiperidine-1-carboxamide]",456%,–
"CC1(c2noc([C@@H]3C[C@@H]3F)n2)CCN(C(=O)N[C@@H]2[C@@H](O[C@H]3CCN(CC4(C(F)(F)F)CC4)C3)CCCC2(F)F)CC1 [Example 135, N-[(1R,6S)-2,2-difluoro-6-{[(3S)-1-{[1-(trifluoromethyl)cyclopropyl]methyl}pyrrolidin-3-yl]oxy}cyclohexyl]-4-{5-[(1S,2S)-2-fluorocyclopropyl]-1,2,4-oxadiazol-3-yl}-4-methylpiperidine-1-carboxamide]",396%,–
"CN(CC1(F)CC1)C1CCN([C@H]2CCCC(F)(F)[C@@H]2NC(=O)N2CCC(C)(c3noc([C@@H]4C[C@@H]4F)n3)CC2)CC1 [Example 136, N-[(1R,6S)-2,2-difluoro-6-(4-{[(1-fluorocyclopropyl)methyl](methyl)amino}piperidin-1-yl)cyclohexyl]-4-{5-[(1S,2S)-2-fluorocyclopropyl]-1,2,4-oxadiazol-3-yl}-4-methylpiperidine-1-carboxamide]",346%,–
"CN(CC1CC1)[C@H]1CCN([C@H]2CCCC(F)(F)[C@@H]2NC(=O)N2CCC(C)(c3noc([C@@H]4C[C@@H]4F)n3)CC2)C1 [Example 137, N-[(1R,6S)-6-{(3S)-3-[(cyclopropylmethyl)(methyl)amino]pyrrolidin-1-yl}-2,2-difluorocyclohexyl]-4-{5-[(1S,2S)-2-fluorocyclopropyl]-1,2,4-oxadiazol-3-yl}-4-methylpiperidine-1-carboxamide]",376%,–
"CN(CC1CC1)[C@H]1CCN([C@H]2CCCC(F)(F)[C@@H]2NC(=O)N2CCC(C)(c3noc(C4CC4)n3)CC2)C1 [Example 138, N-[(1R,6S)-6-{(3S)-3-[(cyclopropylmethyl)(methyl)amino]pyrrolidin-1-yl}-2,2-difluorocyclohexyl]-4-(5-cyclopropyl-1,2,4-oxadiazol-3-yl)-4-methylpiperidine-1-carboxamide]",385%,–
"CN(CC1(C(F)(F)F)CC1)C1CCN([C@H]2CCCC(F)(F)[C@@H]2NC(=O)N2CCC(C)(c3noc([C@@H]4C[C@@H]4F)n3)CC2)CC1 [Example 140, N-{(1R,6S)-2,2-difluoro-6-[4-(methyl{[1-(trifluoromethyl)cyclopropyl]methyl}amino)piperidin-1-yl]cyclohexyl}-4-{5-[(1S,2S)-2-fluorocyclopropyl]-1,2,4-oxadiazol-3-yl}-4-methylpiperidine-1-carboxamide]",249%,–
"CN(CC1CC1)C1C[C@H]2CC[C@@H](C1)N2[C@H]1CCCC(F)(F)[C@@H]1NC(=O)N1CCC(C)(c2noc([C@@H]3C[C@@H]3F)n2)CC1 (stereo partly drawn) [Example 141, N-[(1R,6S)-6-{(1R,3R,5S)-3-[(cyclopropylmethyl)(methyl)amino]-8-azabicyclo[3.2.1]octan-8-yl}-2,2-difluorocyclohexyl]-4-{5-[(1S,2S)-2-fluorocyclopropyl]-1,2,4-oxadiazol-3-yl}-4-methylpiperidine-1-carboxamide]",–,405%
"CN(CC1CC1)C1C[C@H]2CC[C@@H](C1)N2[C@H]1CCCC(F)(F)[C@@H]1NC(=O)N1CCC(C)(c2noc([C@@H]3C[C@@H]3F)n2)CC1 (stereo partly drawn) [Example 142, N-[(1R,6S)-6-{(1R,3S,5S)-3-[(cyclopropylmethyl)(methyl)amino]-8-azabicyclo[3.2.1]octan-8-yl}-2,2-difluorocyclohexyl]-4-{5-[(1S,2S)-2-fluorocyclopropyl]-1,2,4-oxadiazol-3-yl}-4-methylpiperidine-1-carboxamide]",–,407%
"CC(C)(F)CN1CC[C@H](O[C@H]2CCCC(F)(F)[C@@H]2NC(=O)N2CCC(C)(c3noc([C@@H]4C[C@@H]4F)n3)CC2)C1 [Example 143, N-[(1R,6S)-2,2-difluoro-6-{[(3S)-1-(2-fluoro-2-methylpropyl)pyrrolidin-3-yl]oxy}cyclohexyl]-4-{5-[(1S,2S)-2-fluorocyclopropyl]-1,2,4-oxadiazol-3-yl}-4-methylpiperidine-1-carboxamide]",444%,–
